Test results as given in BindingDB's records for doi:10.7270/Q21Z42V4 (Burnham Center For Chemical Genomics, 2010).

Target: Intestinal-type alkaline phosphatase (Mus musculus, UniProt P24822)
Experiment: PubChem AID 488875

Sequence of Intestinal-type alkaline phosphatase (P24822 whole entry, looked up): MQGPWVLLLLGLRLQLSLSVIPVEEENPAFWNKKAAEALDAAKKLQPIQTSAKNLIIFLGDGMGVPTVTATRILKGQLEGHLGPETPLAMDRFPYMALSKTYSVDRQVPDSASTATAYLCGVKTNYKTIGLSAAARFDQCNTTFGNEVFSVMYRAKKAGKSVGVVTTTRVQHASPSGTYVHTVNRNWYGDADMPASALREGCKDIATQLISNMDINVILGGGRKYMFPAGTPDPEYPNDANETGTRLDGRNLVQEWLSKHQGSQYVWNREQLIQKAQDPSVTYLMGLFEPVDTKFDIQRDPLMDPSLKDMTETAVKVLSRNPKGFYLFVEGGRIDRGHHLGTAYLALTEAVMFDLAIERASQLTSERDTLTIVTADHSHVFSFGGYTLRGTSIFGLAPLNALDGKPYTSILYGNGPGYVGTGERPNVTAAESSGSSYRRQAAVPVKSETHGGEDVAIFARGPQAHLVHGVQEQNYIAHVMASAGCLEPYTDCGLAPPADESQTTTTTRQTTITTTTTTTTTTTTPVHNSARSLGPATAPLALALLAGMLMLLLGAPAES

EC50 [µM]	SMILES
> 100	C=c1[nH]n(-c2nc3ccccc3[nH]2)c(=O)c1=CN(C)C [(4E)-2-(1H-benzimidazol-2-yl)-4-(dimethylaminomethylidene)-5-methyl-pyrazol-3-one]
> 100	CCc1ccc(CN=Nc2ncnc3nc[nH]c23)cc1 [MLS000419199]
> 100	Cn1c(C(C#N)C(=O)c2ccc(Br)s2)nc2ccccc21 (centres undefined) [MLS001167394]
> 100	COc1cccc(C=NNC(=O)c2[nH][nH]c(=O)c2C)c1O [N'-[(E)-(5-methoxy-6-oxidanylidene-cyclohexa-2,4-dien-1-ylidene)methyl]-4-methyl-5-oxidanylidene-1,4-dihydropyrazole-3-carbohydrazide]
